# From patent publication US20230109717A1 (GAIA BioMedicine Inc., priority 2020, published 2023)
# Entries after “also recorded” stand apart in the source; their conditions may differ.
# Legend:
# highly active NK cells [1] = experiment: Viability of freeze-thawed highly active NK cells (7-AAD staining, flow cytometry, FlowJo)
# Method: The highly activated NK cells (1×10^5 cells/well) thawed under each condition were centrifuged on a 96-well plate (IWAKI, 4870-800SP), the supernatant was removed, and then a 7-amino-actinomycin D (7-AAD) solution diluted with PBS (Beckman Coulter, A 07704) was added to the cells to suspend them, and the suspension was incubated at room temperature (room temperature means 15 to 25° C., the same shall apply in the following experiments) for 20 minutes. The stained cells were measured by using a flow cytometer (BD LSR Fortessa, BD Biosciences).
# The NK cells frozen for 48 hours or longer were thawed in a water bath at 37° C., and 1×10^5 cells were dispensed on a 96-well plate (IWAKI) immediately after the thawing. […] The cells dispensed immediately after thawing were centrifuged immediately after they were dispensed, and the cells of the other four groups were centrifuged after incubation of 3 hours, measurement was performed by the method for staining with 7-AAD described above, and the results were analyzed with the FlowJo software (FLOWJO, LLC) to calculate viable cell rates.
# The NK cells frozen for 48 hours or longer were thawed at 37° C. in a water bath, and then 1×10^5 of the cells were dispensed on a 96-well plate immediately after the thawing. […] The cells dispensed immediately after thawing were centrifuged immediately after they were dispensed, and the cells of the other four groups were centrifuged after incubation of 3 hours, measurement was performed by the method for staining with 7-AAD described above, and the results were analyzed with the FlowJo software (FLOWJO, LLC) to calculate viable cell rates.
# Then, measurement was performed by the method for staining with 7-AAD described above, and the results were analyzed with the FlowJo software. […] Then, measurement was performed by the method for staining with 7-AAD described above, and the results were analyzed with the FlowJo software. (8-3) The experiment was performed in the same manner as in (8-1), but (1) PBS, (2) Plasma-Lyte A, (3) Plasma-Lyte A containing 27.7 mEq/L of lactic acid (Nacalai Tesque, 20006-62), (4) Plasma-Lyte A containing 48.84 mg/L of MgSO4.7H2O (Nacalai Tesque, 21002-85), (5) Lactoringer, (6) Veen-F (Fuso Pharma), (7) Solita-T1 (AY Pharmaceuticals), (8) Solita-T3 (AY Pharmaceuticals), (9) 5% glucose injection solution (Terumo), and (10) RPMI medium were used as the solvents for dilution of thawed cells, and the cells were incubated at 37° C. for 3 hours. In the case of (3), lactic acid was added at the same concentration as the lactate concentration in Lactoringer, and neutrality of the solution was confirmed with litmus test paper. In the case of (4), MgSO4 was added at the same concentration as the MgSO4 concentration in HBSS. Measurement was then performed by the method for staining with 7-AAD described above, and the results were analyzed with the FlowJo software. (8-4) The experiment was performed in the same manner as in (8-2), but the cells were treated by using (1) PBS, (2) Plasma-Lyte A, (3) saline (OTSUKA NORMAL SALINE, Otsuka Pharmaceutical), (4) Bicanate (Otsuka Pharmaceutical), and (5) Solacet F (Terumo) as the solvents for dilution of thawed cells. Measurement was then performed by the method for staining with 7-AAD described above, and the results were analyzed with the FlowJo software. […] Immediately after completely thawed, the cells were diluted 10-fold in (1) Plasma-Lyte A, (2) saline, (3) RPMI 1640 medium, (4) Lactoringer, (5) 0.423 mM CaCl2 prepared in Plasma-Lyte A, and (6) 1.36 mM CaCl2, and left to stand at 37° C. for 3 hours. The CaCl2 concentration of (5) was the same as that in the RPMI 1640 medium, and the CaCl2 concentration of (6) was the same as that in Lactoringer. Measurement was then performed by the method for staining with 7-AAD described above, and the results were analyzed with the FlowJo software.
# highly active NK cells [2] = experiment: Viable cell count and recovery rate of highly active NK cells after thawing, based on cell number at freezing; parameters: species or system human
# Method: After the thawing, all the dilution and incubation operations were performed on a low-absorption 6-well plate.
# The cells of the groups diluted in the media were incubated overnight at 37° C. under 5% CO2, and then the numbers of viable cells were counted. The experimental conditions are summarized below.
# The NK cells obtained by the collection method 1 were suspended in PBS, and incubated at room temperature for 1 hour. The NK cells obtained by the collection method 2 were suspended in (1) the KBM501 medium, (2) KBM501 medium containing 30 μM 4-phenylbutyric acid, (3) KBM501 medium containing 30 μM tauroursodeoxycholic acid dihydrate (TUDCA, Tokyo Kasei Kogyo, T1567), and (4) KBM501 medium containing 30 μM 4-phenylbutyric acid and 30 μM TUDCA, and incubated at 37° C. for 2 hours under 5% CO2. […] After 1 hour, the cells were gently suspended, and number of viable cells was counted. After another 5-fold dilution in the KBM501 medium and incubation at 37° C. for 2 hours under 5% CO2, number of viable cells was counted, and the recovery rate based on the number of cells at the time of freezing was calculated.
# (§1) After 1 and 3 hours, the cells were gently suspended, and viable cells were counted. In addition, after 1 hour, the cells were diluted 5-fold in the KBM501 medium, and incubated at 37° C. for 2 hours under 5% CO2, and viable cell were counted. Recovery rate of viable cells after the thawing based on the cell number at the time of freezing was calculated using the number of viable cells at each time point.
# as §1, with “on the basis of” for “using”, “point after the thawing.” for “point.”
# K562 cells = experiment: Cytotoxic activity rate (% Lysis) of freeze-thawed highly active NK cells against K562 cells; assay type: cell-based; settings: Exmp. 7, collect. method 2, pretreatment KBM + 2.4% DMSO 2 h
# Method: Cytotoxic activity can be expressed as the percentage of target cells killed by effector cells, and is calculated in accordance with the following equation.
# (Cell death observed in co-culture with effector cells−Spontaneous cell death (negative control))/(Maximum cell death (positive control)−Spontaneous cell death (negative control))×100
# For the measurement of cytotoxic activity, a group of the K562 cells reacted with the NK cells, a group consisting solely of the K562 cells as a negative control, and a group of the K562 cells fixed with 10% formalin as a positive control were prepared.
# After incubation for the times indicated for the groups, the cells were collected, and prepared at a density of 2×10^6 cells/mL in 10% FBS/RPMI 1640.
# The K562 cells (human chronic myelogenous leukemia cell line) were suspended in serum-free RPMI 1640 medium, stained with PKH26 Red Fluorescent Cell Linker Kit (Sigma, PKH26GL-1KT), and finally prepared at a density of 2×10^6 cells/mL in 10% FBS/RPMI 1640.
# The NK cells and K562 cells were added and mixed in wells of 96-well plate (IWAKI, 4870-800SP) at a cell ratio of 1:1, and allowed to react at 37° C. for 2 hours under 5% CO2. After the reaction, the plate was centrifuged (500×g, 5 minutes), and the supernatant was removed. Then, a 7-AAD solution diluted with PBS was added to the cells to suspend the cells, and the suspension was incubated at room temperature for 20 minutes. […]
# For the measurement of cytotoxic activity, a group of the NK cells reacted with the K562 cells, a group solely consisting of the K562 cells as a negative control, and a group of the K562 cells fixed with 10% formalin as a positive control were prepared.
# The cells were thawed and diluted by the method described above, and a necessary amount of the cells were taken on the basis of the number of viable cells at the time of freezing, and then prepared at a density of 2×10^6 cells/mL in 10% FBS/RPMI 1640.
# The K562 cells were suspended in serum-free RPMI 1640 medium, stained with PKH26 Red Fluorescent Cell Linker Kit, and then prepared at a density of 2×10^6 cells/mL in 10% FBS/RPMI 1640. […]
# For the measurement of cytotoxic activity, a group of NK cells reacted with K562 cells, a group of K562 cells only as a negative control, and a group of K562 cells fixed with 10% formalin as a positive control were prepared. […]
# (9-2) Cytotoxic activity was measured in the same manner as described in the section of (9-1), but after thawing and dilution, the cells were left to stand for up to 6 hours, and cytotoxic activity was measured by the method described in the section b) mentioned above at the time points of 2, 5, and 6 hours. In detail, the NK cells and K562 cells were added to each well of a 96-well plate (IWAKI, 4870-800SP) at a cell ratio of 1:1, mixed, and then allowed to react at 37° C. for 2 hours under 5% CO2.
# highly active NK cells [3] = experiment: Optical microscope observation of highly active NK cells after freeze-thawing; assay type: cell-based, human; settings: additive in KBM501 medium used for 10-fold dilution after thawing; 37° C. 3 hours (or 4° C. 3 hours then 37° C. 3 hours); cells washed with PBS
# Method: The NK cells frozen for 48 hours or longer were thawed at 37° C. in a water bath, then diluted 10-fold in the solvents mentioned below, left to stand at the temperatures for the times mentioned below, then observed and photographed under an optical microscope.
# <1> Diluted in the KBM501 medium, and left to stand at 37° C. for 3 hours. <2> Diluted in the KBM501 medium containing Z-Vad, and left to stand at 37° C. for 3 hours. <3> Diluted in the KBM501 medium containing methylprednisolone, and left to stand at 37° C. for 3 hours. <4> Diluted in the KBM501 medium containing dexamethasone, and left to stand at 37° C. for 3 hours. <5> Diluted in the KBM501 medium, and left to stand at 4° C. for 3 hours. <6> Diluted in the KBM501 medium containing methylprednisolone, and left to stand at 4° C. for 3 hours, and then at 37° C. for 3 hours. <7> Diluted in the KBM501 medium containing dexamethasone, and left to stand at 4° C. for 3 hours, and then at 37° C. for 3 hours.
molecule,measurement,setting,value
"O=C(O)CCCc1ccccc1 [4-PBA, 4-phenylbutyric acid]",Viability,"highly active NK cells [1]; Exmp. 4, collect. method 1, pretreatment KBM + 10 μM 4-PBA 2 h, thawing PlasmaLyte + IL-2 1 h, then KBM o/n",A (“A” means 70% or higher)
same,Recovery rate after the thawing,"highly active NK cells [2]; pretreatment 2 hours with KBM501 medium supplemented with 30 μM additive before freezing, Example 5",improved
same,Viability after the thawing,"highly active NK cells [2]; treatment with KBM501 supplemented with 10 or 100 μM additive before freezing, viable cells counted after overnight incubation, Example 4",improved
"C[S+](C)[O-] [DMSO, dimethyl sulfoxide]",Activity,"K562 cells; thawing PlasmaLyte + IL-2, R.T. 1 h",A (A means 70% or higher)
same,Activity,"K562 cells; thawing PlasmaLyte + IL-2, R.T. 1 h, then KBM 2 h",A (A means 70% or higher)
same,Activity,"K562 cells; thawing PlasmaLyte + IL-2, R.T. 3 h",A (A means 70% or higher)
same,Activity,K562 cells; thawing PlasmaLyte R.T. 1 h,A (A means 70% or higher)
same,Activity,"K562 cells; thawing PlasmaLyte R.T. 1 h, then KBM 2 h",A (A means 70% or higher)
same,Activity,K562 cells; thawing PlasmaLyte R.T. 3 h,A (A means 70% or higher)
"[Cl-].[Cl-].[Mg+2] [MgCl2, Magnesium chloride]",Viability,"highly active NK cells [1]; 100 mM as solution used at thawing, cells washed with KBM501 medium, conditions (12-4) and (12-5)",degraded
"O=C([O-])[C@H](O)[C@@H](O)[C@H](O)[C@H](O)CO.[Na+] [gluconic acid, sodium gluconate]",Viability of frozen highly active NK cells after thawing,"highly active NK cells [1]; added to KBM501 medium used for dilution at thawing (5.02 mg/mL sodium gluconate), 37° C. 3 hours, Example 1",did not show improvement; also recorded: no improvement
Z-VAD,Viability of highly active NK cells after freeze-thawing (optical micrographs),highly active NK cells [3],not improved
